A word on the EC50: it is the concentration that produces a half-maximal response.

The test system of the first test is HBV. In words: Viral load production from HepAD38 cells, qPCR of the HBV core sequence in supernatant. It is filed as cell-based. The settings on record: HepAD38 cells, 5 days, HBV DNA in supernatant by qPCR; Table 1 ranges; read-out: Activity (viral load lowering EC50). An outline of the steps: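 EC50 and CC50 come from four-parameter logistic fits of supernatant HBV core DNA (TaqMan qPCR, DNA standards, compared with DMSO wells) and of CellTiter-Glo luminescence.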
For orientation: Quantitative PCR measures a nucleic acid by following its amplification.
Regarding `CC(NC(=O)N1CC2CC(c3nn(C)c(N)c3C(=O)Nc3ccc(F)c(Cl)c3)CC2C1)C(F)(F)F` (single isomer, unassigned) [Example 129, 5-(5-Amino-4-((3-chloro-4-fluorophenyl)carbamoyl)-1-methyl-1H-pyrazol-3-yl)-N-(1,1,1-trifluoropropan-2-yl)hexahydrocyclopenta[c]pyrrole-2(1H)-carboxamide], the EC50 was 0.05 to 0.5 µM.

For “3-Amino-N-(3-chloro-4-fluorophenyl)-5-(5-hydroxy-5-(1-methyl-1H-imidazol-4-yl)octahydropentalen-2-yl)-2λ^2-pyrazole-4-carboxamide [Example 20]”, the concentration for a half-maximal effect (EC50) was < 0.01 µM. On the same count and under the same terms, for `Cn1nc(C2CC3CC(O)(CNc4cc(N)ncn4)CC3C2)c(C(=O)Nc2ccc(F)c(Cl)c2)c1N` (single isomer, unassigned) [Example 205A] the value was < 0.01 µM; for `Cn1nc(C2CC3CC(CNC(=O)C4CC4)CC3C2)c(C(=O)Nc2ccc(F)c(Cl)c2)c1N` (single isomer, unassigned) [Example 42, 5-Amino-N-(3-chloro-4-fluorophenyl)-3-(5-(cyclopropanecarboxamidomethyl)octahydropentalen-2-yl)-1-methyl-1H-pyrazole-4-carboxamide], < 0.01 µM.

Staying with this test, now noted: HepAD38 cells, 5 days, HBV DNA in supernatant by qPCR; Table 2 ranges; read-out: VL HepAD38 EC50 range.
Turning to `Cn1nc(C2CC3CC(O)C(c4ccccc4)C3C2)c(C(=O)Nc2ccc(F)c(Cl)c2)c1N` (single isomer, unassigned) [Example 142, 5-Amino-N-(3-chloro-4-fluorophenyl)-3-(5-hydroxy-4-phenyloctahydropentalen-2-yl)-1-methyl-1H-pyrazole-4-carboxamide], the EC50 was < 0.1 µM.

The same test, now with this note: Hepatitis B virus, HePAD38, 120 h, HepAD38 cells, 5 days, HBV DNA in supernatant by qPCR; Table 1 ranges; read-out: Activity (viral load lowering EC50).
As to `Cn1nc(C2CC3CN(c4ncc(C(F)(F)F)s4)CC3C2)c(C(=O)Nc2ccc(F)c(Cl)c2)c1N` (stereo not drawn) [Example 134, 5-Amino-N-(3-chloro-4-fluorophenyl)-1-methyl-3-(2-(5-(trifluoromethyl)thiazol-2-yl)octahydrocyclopenta[c]pyrrol-5-yl)-1H-pyrazole-4-carboxamide], the EC50 fell in the range of 0.05 to 0.5 µM.

Turning to `Cn1nc(C2CC3CC(CNS(=O)(=O)C4CCOCC4)CC3C2)c(C(=O)Nc2ccc(F)c(Cl)c2)c1N` (stereo not drawn) [Example 96, 5-Amino-N-(3-chloro-4-fluorophenyl)-1-methyl-3-(5-(((tetrahydro-2H-pyran)-4-sulfonamido)methyl)octahydropentalen-2-yl)-1H-pyrazole-4-carboxamide], the half-maximal effective concentration (EC50) is < 0.01 µM. On the same count and under the same terms, under `Cn1nc(C2CC3CC(CNS(=O)(=O)C4CCCC4)CC3C2)c(C(=O)Nc2ccc(F)c(Cl)c2)c1N` (stereo not drawn) [Example 92, 5-Amino-N-(3-chloro-4-fluorophenyl)-3-(5-(cyclopentanesulfonamidomethyl)octahydropentalen-2-yl)-1-methyl-1H-pyrazole-4-carboxamide] stands 0.01 to 0.05 µM; under `Cn1nncc1C1(O)CC2CC(c3nn(C)c(N)c3C(=O)Nc3ccc(F)c(Cl)c3)CC2C1` (stereo not drawn) [Example 25, 5-Amino-N-(3-chloro-4-fluorophenyl)-3-(5-hydroxy-5-(1-methyl-1H-1,2,3-triazol-5-yl)octahydropentalen-2-yl)-1-methyl-1H-pyrazole-4-carboxamide], < 0.01 µM; under `Cn1nc(C2CC3CC(CNC(=O)C(C)(C)C4CCOCC4)CC3C2)c(C(=O)Nc2ccc(F)c(Cl)c2)c1N` (stereo not drawn) [Example 63, 5-Amino-N-(3-chloro-4-fluorophenyl)-1-methyl-3-(5-((2-methyl-2-(tetrahydro-2H-pyran-4-yl)propanamido)methyl)octahydropentalen-2-yl)-1H-pyrazole-4-carboxamide], 0.01 to 0.05 µM. Consider `Cn1nc(C2CC3CC(O)(c4nc5cc(F)c(F)cc5n4C)CC3C2)c(C(=O)Nc2ccc(F)c(Cl)c2)c1N` (stereo not drawn) [Example 152], for which the EC50 fell in the range of 0.01 to 0.05 µM. The same measure, in the same setting: under `COC(=O)CCC(=O)OCn1cc(C2(O)CC3CC(c4nn(C)c(N)c4C(=O)Nc4ccc(F)c(Cl)c4)CC3C2)c(C(F)(F)F)n1` (stereo not drawn) [Example 226] stands < 0.01 µM.

Regarding `C#CCCC(=O)NCC1CC2CC(c3nn(C)c(N)c3C(=O)Nc3ccc(F)c(Cl)c3)CC2C1` (stereo not drawn) [Example 52, 5-Amino-N-(3-chloro-4-fluorophenyl)-1-methyl-3-(5-(pent-4-ynamidomethyl)octahydropentalen-2-yl)-1H-pyrazole-4-carboxamide], the EC50 is < 0.01 µM. Still for that read-out and setting: for `Cn1nc(C2CC3CN(c4c(F)cncc4F)CC3C2)c(C(=O)Nc2ccc(F)c(Cl)c2)c1N` (stereo not drawn) [Example 124, 5-Amino-N-(3-chloro-4-fluorophenyl)-3-(2-(3,5-difluoropyridin-4-yl)octahydrocyclopenta[c]pyrrol-5-yl)-1-methyl-1H-pyrazole-4-carboxamide] the value was 0.01 to 0.05 µM; for `COCCOCCOCCOCCOCCOCCOC(=O)OCn1cc(C2(O)CC3CC(c4nn(C)c(N)c4C(=O)Nc4ccc(F)c(Cl)c4)CC3C2)c(C(F)(F)F)n1` (stereo not drawn) [Example 228], < 0.01 µM; for `Cn1ccnc1C1(O)CC2CC(c3nn(C)c(N)c3C(=O)Nc3ccc(F)c(Cl)c3)CC2C1` (stereo not drawn) [Example 19, 5-Amino-N-(3-chloro-4-fluorophenyl)-3-(5-hydroxy-5-(1-methyl-1H-imidazol-2-yl)octahydropentalen-2-yl)-1-methyl-1H-pyrazole-4-carboxamide], < 0.01 µM. The same measure, in the same setting: for `C#CC1(O)CC2CC(c3nn(C)c(N)c3C(=O)Nc3ccc(F)c(Cl)c3)CC2C1` (stereo not drawn) [Example 22, 5-Amino-N-(3-chloro-4-fluorophenyl)-3-(5-ethynyl-5-hydroxyoctahydropentalen-2-yl)-1-methyl-1H-pyrazole-4-carboxamide] the value was < 0.01 µM.

In the case of `Cn1nc(C2CC3CC(CNC(=O)CCCCCN)CC3C2)c(C(=O)Nc2ccc(F)c(Cl)c2)c1N` (stereo not drawn) [Example 81, 5-Amino-3-(5-((6-aminohexanamido)methyl)octahydropentalen-2-yl)-N-(3-chloro-4-fluorophenyl)-1-methyl-1H-pyrazole-4-carboxamide], the EC50 fell in the range of 0.05 to 0.5 µM. With `Cn1nc(C2CC3CC(O)(c4ccc(Oc5ccccc5)cc4)CC3C2)c(C(=O)Nc2ccc(F)c(Cl)c2)c1N` (stereo not drawn) [Example 10, 5-Amino-N-(3-chloro-4-fluorophenyl)-3-(5-hydroxy-5-(4-phenoxyphenyl)octahydropentalen-2-yl)-1-methyl-1H-pyrazole-4-carboxamide], the concentration for a half-maximal effect (EC50) was < 0.01 µM. The same measure, in the same setting: under `Cn1nc(C2CC3CC(CNC(=O)C4CCC(F)(F)CC4)CC3C2)c(C(=O)Nc2ccc(F)c(Cl)c2)c1N` (stereo not drawn) [Example 53, 5-Amino-N-(3-chloro-4-fluorophenyl)-3-(5-((4,4-difluorocyclohexane-1-carboxamido)methyl)octahydropentalen-2-yl)-1-methyl-1H-pyrazole-4-carboxamide] stands < 0.01 µM; under `Cn1nc(C2CC3CC(O)(CNc4ncc(F)cn4)CC3C2)c(C(=O)Nc2ccc(F)c(Cl)c2)c1N` (stereo not drawn) [Example 201], < 0.01 µM; under `Cn1nc(C2CC3CC(N)(CS(C)(=O)=O)CC3C2)c(C(=O)Nc2ccc(F)c(Cl)c2)c1N` (stereo not drawn) [Example 182], > 0.5 µM. Consider `Cn1nc(C2CC3CC(O)(c4cc(N)nn4C4CC4)CC3C2)c(C(=O)Nc2ccc(F)c(Cl)c2)c1N` (stereo not drawn) [Example 215], for which the EC50 was < 0.01 µM.

Consider `Cn1nc(C2CC3CC(O)(c4ccc(F)c(F)c4)CC3C2)c(C(=O)Nc2ccc(F)c(Cl)c2)c1N` (stereo not drawn) [Example 12, 5-Amino-N-(3-chloro-4-fluorophenyl)-3-(5-(3,4-difluorophenyl)-5-hydroxyoctahydropentalen-2-yl)-1-methyl-1H-pyrazole-4-carboxamide], for which the EC50 lay in the range of 0.01 to 0.05 µM. Same read-out and setting: under `CCn1nc(N)cc1C1(O)CC2CC(c3nn(C)c(N)c3C(=O)Nc3ccc(F)c(Cl)c3)CC2C1` (stereo not drawn) [Example 210] stands < 0.01 µM. Still for that read-out and setting: under `Cn1cc(C2(O)CC3CC(c4nn(C)c(N)c4C(=O)Nc4ccc(F)c(Cl)c4)CC3C2)nn1` (stereo not drawn) [Example 23, 5-Amino-N-(3-chloro-4-fluorophenyl)-3-(5-hydroxy-5-(1-methyl-1H-1,2,3-triazol-4-yl)octahydropentalen-2-yl)-1-methyl-1H-pyrazole-4-carboxamide] stands < 0.01 µM; under `Cn1nc(C2CC3CC(O)(CS(=O)(=O)c4cccc(F)c4)CC3C2)c(C(=O)Nc2ccc(F)c(Cl)c2)c1N` (stereo not drawn) [Example 37, 5-Amino-N-(3-chloro-4-fluorophenyl)-3-(5-(((3-fluorophenyl)sulfonyl)methyl)-5-hydroxyoctahydropentalen-2-yl)-1-methyl-1H-pyrazole-4-carboxamide], < 0.01 µM; under `Cn1nc(C2CC3CC(CNS(C)(=O)=O)CC3C2)c(C(=O)Nc2ccc(F)c(Cl)c2)c1N` (stereo not drawn) [Example 88, 5-Amino-N-(3-chloro-4-fluorophenyl)-1-methyl-3-(5-(methylsulfonamidomethyl)octahydropentalen-2-yl)-1H-pyrazole-4-carboxamide], < 0.01 µM. Turning to `Cn1nc(C(F)(F)F)cc1C1(O)CC2CC(c3nn(C)c(N)c3C(=O)Nc3ccc(F)c(Cl)c3)CC2C1` (stereo not drawn) [Example 159], the EC50 is 0.01 to 0.05 µM.

As to `Cn1nc(C2CC3CC(O)(c4cn(COP(=O)(OC(C)(C)C)OC(C)(C)C)nc4C(F)(F)F)CC3C2)c(C(=O)Nc2ccc(F)c(Cl)c2)c1N` (stereo not drawn) [Compd. 6-1, (4-(5-(5-amino-4-((3-chloro-4-fluorophenyl)carbamoyl)-1-methyl-1H-pyrazol-3-yl)-2-hydroxyoctahydropentalen-2-yl)-3-(trifluoromethyl)-1H-pyrazol-1-yl)methyl di-tert-butyl phosphate], the EC50 was in the range of 0.01 to 0.05 µM. On the same count and under the same terms, for `CC(C)n1nc(N)cc1C1(O)CC2CC(c3nn(C)c(N)c3C(=O)Nc3ccc(F)c(Cl)c3)CC2C1` (stereo not drawn) [Example 211] the value was < 0.01 µM. On the same count and under the same terms, for `Cn1nc(C2CC3CC(CNC(=O)c4ccns4)CC3C2)c(C(=O)Nc2ccc(F)c(Cl)c2)c1N` (stereo not drawn) [Example 60, N-((5-(5-Amino-4-((3-chloro-4-fluorophenyl)carbamoyl)-1-methyl-1H-pyrazol-3-yl)octahydropentalen-2-yl)methyl)isothiazole-5-carboxamide] the value was < 0.01 µM. With `Cn1nc(C2CC3CC(O)(c4[nH]nc(C(F)(F)F)c4Br)CC3C2)c(C(=O)Nc2ccc(F)c(Cl)c2)c1N` (stereo not drawn) [Example 224], the EC50 fell in the range of 0.01 to 0.05 µM.

Values taken from patent US20230295096A1, “PYRAZOLE CARBOXAMIDE COMPOUNDS FOR TREATMENT OF HBV” (ASSEMBLY BIOSCIENCES, INC., priority 2020, published 2023).
